# The NIST ThermoML archive (doi:10.1021/je020189p)
# Several values for one entry are separate records, joined by “and”; a condition that tells them apart may be missing. Identical values can stand only once. ± gives the expanded uncertainty stated by the source.
structure (smiles),measurement,setting,value
[I][Gd]([I])[I] [gadolinium triiodide],vapor or sublimation pressure,"890 K, Crystal",4.47e-05 ± 1.4e-05 kPa
same,vapor or sublimation pressure,"891 K, Crystal",5.62e-05 ± 1.7e-05 kPa
same,vapor or sublimation pressure,"901 K, Crystal",6.76e-05 ± 2e-05 kPa and 8.32e-05 ± 2.5e-05 kPa and 5.62e-05 ± 1.7e-05 kPa
same,vapor or sublimation pressure,"905 K, Crystal",8.51e-05 ± 2.6e-05 kPa
same,vapor or sublimation pressure,"911 K, Crystal",0.000112 ± 3.4e-05 kPa
same,vapor or sublimation pressure,"912 K, Crystal",8.91e-05 ± 2.7e-05 kPa
same,vapor or sublimation pressure,"913 K, Crystal",0.000112 ± 3.4e-05 kPa
same,vapor or sublimation pressure,"914 K, Crystal",0.000138 ± 4.2e-05 kPa and 8.91e-05 ± 2.7e-05 kPa
same,vapor or sublimation pressure,"916 K, Crystal",0.000112 ± 3.4e-05 kPa
same,vapor or sublimation pressure,"918 K, Crystal",0.000135 ± 4.2e-05 kPa
same,vapor or sublimation pressure,"919 K, Crystal",0.000155 ± 4.8e-05 kPa
same,vapor or sublimation pressure,"920 K, Crystal",0.000112 ± 3.4e-05 kPa
same,vapor or sublimation pressure,"922 K, Crystal",0.000178 ± 5.4e-05 kPa
same,vapor or sublimation pressure,"924 K, Crystal",0.000123 ± 3.8e-05 kPa
same,vapor or sublimation pressure,"925 K, Crystal",0.000178 ± 5.4e-05 kPa
same,vapor or sublimation pressure,"927 K, Crystal",0.000174 ± 5.3e-05 kPa and 0.000151 ± 4.6e-05 kPa
same,vapor or sublimation pressure,"928 K, Crystal",0.000145 ± 4.4e-05 kPa and 0.000195 ± 5.9e-05 kPa and 0.000209 ± 6.3e-05 kPa
same,vapor or sublimation pressure,"929 K, Crystal",0.000234 ± 7e-05 kPa
same,vapor or sublimation pressure,"933 K, Crystal",0.000191 ± 5.8e-05 kPa
same,vapor or sublimation pressure,"934 K, Crystal",0.000269 ± 8.1e-05 kPa
same,vapor or sublimation pressure,"936 K, Crystal",0.0002 ± 6.2e-05 kPa
same,vapor or sublimation pressure,"937 K, Crystal",0.000282 ± 8.5e-05 kPa and 0.000251 ± 7.6e-05 kPa
same,vapor or sublimation pressure,"938 K, Crystal",0.000324 ± 9.8e-05 kPa
same,vapor or sublimation pressure,"939 K, Crystal",0.000295 ± 9.2e-05 kPa
same,vapor or sublimation pressure,"942 K, Crystal",0.000347 ± 0.00011 kPa and 0.000269 ± 8.2e-05 kPa
same,vapor or sublimation pressure,"943 K, Crystal",0.000245 ± 7.5e-05 kPa
same,vapor or sublimation pressure,"944 K, Crystal",0.000355 ± 0.00011 kPa
same,vapor or sublimation pressure,"946 K, Crystal",0.000398 ± 0.00012 kPa
same,vapor or sublimation pressure,"947 K, Crystal",0.000389 ± 0.00012 kPa
same,vapor or sublimation pressure,"948 K, Crystal",0.000372 ± 0.00011 kPa
same,vapor or sublimation pressure,"951 K, Crystal",0.000331 ± 0.0001 kPa
same,vapor or sublimation pressure,"952 K, Crystal",0.00049 ± 0.00015 kPa
same,vapor or sublimation pressure,"954 K, Crystal",0.000417 ± 0.00013 kPa
same,vapor or sublimation pressure,"955 K, Crystal",0.000525 ± 0.00016 kPa and 0.000603 ± 0.00018 kPa
same,vapor or sublimation pressure,"957 K, Crystal",0.000575 ± 0.00018 kPa and 0.000457 ± 0.00014 kPa
same,vapor or sublimation pressure,"959 K, Crystal",0.000447 ± 0.00014 kPa
same,vapor or sublimation pressure,"962 K, Crystal",0.000708 ± 0.00021 kPa
same,vapor or sublimation pressure,"964 K, Crystal",0.000794 ± 0.00024 kPa
same,vapor or sublimation pressure,"966 K, Crystal",0.000575 ± 0.00017 kPa and 0.000794 ± 0.00024 kPa and 0.000631 ± 0.00019 kPa
same,vapor or sublimation pressure,"967 K, Crystal",0.000724 ± 0.00022 kPa
same,vapor or sublimation pressure,"970 K, Crystal",0.000912 ± 0.00028 kPa
same,vapor or sublimation pressure,"973 K, Crystal",0.00107 ± 0.00032 kPa
same,vapor or sublimation pressure,"974 K, Crystal",0.00102 ± 0.00031 kPa
same,vapor or sublimation pressure,"975 K, Crystal",0.00107 ± 0.00032 kPa and 0.000891 ± 0.00027 kPa
same,vapor or sublimation pressure,"978 K, Crystal",0.000832 ± 0.00025 kPa and 0.00107 ± 0.00032 kPa
same,vapor or sublimation pressure,"979 K, Crystal",0.00126 ± 0.00038 kPa
same,vapor or sublimation pressure,"983 K, Crystal",0.00135 ± 0.00041 kPa and 0.00115 ± 0.00035 kPa
same,vapor or sublimation pressure,"984 K, Crystal",0.00145 ± 0.00044 kPa
same,vapor or sublimation pressure,"985 K, Crystal",0.00158 ± 0.00047 kPa
same,vapor or sublimation pressure,"987 K, Crystal",0.00162 ± 0.00049 kPa
same,vapor or sublimation pressure,"988 K, Crystal",0.00115 ± 0.00035 kPa
same,vapor or sublimation pressure,"990 K, Crystal",0.00155 ± 0.00047 kPa
same,vapor or sublimation pressure,"992 K, Crystal",0.00174 ± 0.00054 kPa and 0.00141 ± 0.00044 kPa
same,vapor or sublimation pressure,"993 K, Crystal",0.00191 ± 0.00057 kPa and 0.00204 ± 0.00061 kPa
same,vapor or sublimation pressure,"995 K, Crystal",0.00214 ± 0.00065 kPa
same,vapor or sublimation pressure,"997 K, Crystal",0.00138 ± 0.00042 kPa
same,vapor or sublimation pressure,"1002 K, Crystal",0.00251 ± 0.00076 kPa and 0.00219 ± 0.00066 kPa
same,vapor or sublimation pressure,"1003 K, Crystal",0.00269 ± 0.00081 kPa
same,vapor or sublimation pressure,"1006 K, Crystal",0.00191 ± 0.00058 kPa
same,vapor or sublimation pressure,"1011 K, Crystal",0.00331 ± 0.001 kPa and 0.00282 ± 0.00085 kPa
same,vapor or sublimation pressure,"1012 K, Crystal",0.00355 ± 0.0011 kPa
same,vapor or sublimation pressure,"1019 K, Crystal",0.00339 ± 0.001 kPa
same,vapor or sublimation pressure,"1021 K, Crystal",0.00389 ± 0.0012 kPa
same,vapor or sublimation pressure,"1023 K, Crystal",0.00676 ± 0.002 kPa
same,vapor or sublimation pressure,"1026 K, Crystal",0.00407 ± 0.0013 kPa
same,vapor or sublimation pressure,"1033 K, Crystal",0.00871 ± 0.0026 kPa and 0.00537 ± 0.0016 kPa
same,vapor or sublimation pressure,"1040 K, Crystal",0.00603 ± 0.0018 kPa
same,vapor or sublimation pressure,"1042 K, Crystal",0.00692 ± 0.0021 kPa
same,vapor or sublimation pressure,"1045 K, Crystal",0.0126 ± 0.0038 kPa
same,vapor or sublimation pressure,"1052 K, Crystal",0.00871 ± 0.0026 kPa
same,vapor or sublimation pressure,"1054 K, Crystal",0.00977 ± 0.003 kPa
same,vapor or sublimation pressure,"1055 K, Crystal",0.017 ± 0.0052 kPa
same,vapor or sublimation pressure,"1064 K, Crystal",0.0219 ± 0.0066 kPa
same,vapor or sublimation pressure,"1066 K, Crystal",0.0135 ± 0.0041 kPa and 0.0145 ± 0.0044 kPa
same,vapor or sublimation pressure,"1074 K, Crystal",0.0302 ± 0.0091 kPa
same,vapor or sublimation pressure,"1076 K, Crystal",0.0209 ± 0.0063 kPa
same,vapor or sublimation pressure,"1082 K, Crystal",0.0214 ± 0.0065 kPa
same,vapor or sublimation pressure,"1083 K, Crystal",0.0398 ± 0.012 kPa
same,vapor or sublimation pressure,"1086 K, Crystal",0.0282 ± 0.0086 kPa
same,vapor or sublimation pressure,"1094 K, Crystal",0.0537 ± 0.016 kPa
same,vapor or sublimation pressure,"1097 K, Crystal",0.0372 ± 0.011 kPa
same,vapor or sublimation pressure,"1102 K, Crystal",0.0676 ± 0.021 kPa
[Cl-].[Cl-].[Cl-].[Gd+3] [gadolinium(III) chloride],vapor or sublimation pressure,"930 K, Liquid",3.31e-05 ± 1e-05 kPa
same,vapor or sublimation pressure,"952 K, Liquid",6.76e-05 ± 2.1e-05 kPa
same,vapor or sublimation pressure,"957 K, Liquid",8.32e-05 ± 2.5e-05 kPa
same,vapor or sublimation pressure,"958 K, Liquid",6.31e-05 ± 1.9e-05 kPa
same,vapor or sublimation pressure,"965 K, Liquid",7.76e-05 ± 2.4e-05 kPa
same,vapor or sublimation pressure,"970 K, Liquid",0.000129 ± 3.9e-05 kPa
same,vapor or sublimation pressure,"973 K, Liquid",9.77e-05 ± 2.9e-05 kPa
same,vapor or sublimation pressure,"983 K, Liquid",0.000141 ± 4.3e-05 kPa and 0.000178 ± 5.4e-05 kPa
same,vapor or sublimation pressure,"994 K, Liquid",0.000195 ± 5.9e-05 kPa
same,vapor or sublimation pressure,"996 K, Liquid",0.000224 ± 6.8e-05 kPa
same,vapor or sublimation pressure,"1002 K, Liquid",0.000324 ± 9.7e-05 kPa
same,vapor or sublimation pressure,"1004 K, Liquid",0.000251 ± 7.6e-05 kPa
same,vapor or sublimation pressure,"1011 K, Liquid",0.000331 ± 0.0001 kPa
same,vapor or sublimation pressure,"1015 K, Liquid",0.000355 ± 0.00011 kPa
same,vapor or sublimation pressure,"1022 K, Liquid",0.000562 ± 0.00017 kPa
same,vapor or sublimation pressure,"1023 K, Liquid",0.000479 ± 0.00015 kPa
same,vapor or sublimation pressure,"1024 K, Liquid",0.00049 ± 0.00015 kPa
same,vapor or sublimation pressure,"1042 K, Liquid",0.000794 ± 0.00024 kPa
same,vapor or sublimation pressure,"1044 K, Liquid",0.001 ± 0.0003 kPa
same,vapor or sublimation pressure,"1046 K, Liquid",0.001 ± 0.0003 kPa
same,vapor or sublimation pressure,"1052 K, Liquid",0.00102 ± 0.00031 kPa
same,vapor or sublimation pressure,"1054 K, Liquid",0.00141 ± 0.00042 kPa
same,vapor or sublimation pressure,"1061 K, Liquid",0.00135 ± 0.00041 kPa
same,vapor or sublimation pressure,"1062 K, Liquid",0.00138 ± 0.00041 kPa
same,vapor or sublimation pressure,"1071 K, Liquid",0.00174 ± 0.00052 kPa
same,vapor or sublimation pressure,"1076 K, Liquid",0.00219 ± 0.00066 kPa
same,vapor or sublimation pressure,"1082 K, Liquid",0.00234 ± 0.0007 kPa
same,vapor or sublimation pressure,"1086 K, Liquid",0.00269 ± 0.00081 kPa
same,vapor or sublimation pressure,"1090 K, Liquid",0.00275 ± 0.00083 kPa
same,vapor or sublimation pressure,"1091 K, Liquid",0.00339 ± 0.001 kPa
same,vapor or sublimation pressure,"1093 K, Liquid",0.00302 ± 0.00091 kPa
same,vapor or sublimation pressure,"1099 K, Liquid",0.00339 ± 0.001 kPa
same,vapor or sublimation pressure,"1103 K, Liquid",0.00437 ± 0.0013 kPa
same,vapor or sublimation pressure,"1107 K, Liquid",0.00417 ± 0.0013 kPa
same,vapor or sublimation pressure,"1113 K, Liquid",0.00575 ± 0.0017 kPa
same,vapor or sublimation pressure,"1116 K, Liquid",0.00513 ± 0.0015 kPa
same,vapor or sublimation pressure,"1117 K, Liquid",0.00603 ± 0.0018 kPa
same,vapor or sublimation pressure,"1120 K, Liquid",0.00589 ± 0.0018 kPa and 0.00603 ± 0.0018 kPa
same,vapor or sublimation pressure,"1126 K, Liquid",0.00759 ± 0.0023 kPa and 0.00661 ± 0.002 kPa
same,vapor or sublimation pressure,"1134 K, Liquid",0.00871 ± 0.0026 kPa
same,vapor or sublimation pressure,"1135 K, Liquid",0.00794 ± 0.0024 kPa
same,vapor or sublimation pressure,"1138 K, Liquid",0.00977 ± 0.0029 kPa
same,vapor or sublimation pressure,"1144 K, Liquid",0.01 ± 0.003 kPa
same,vapor or sublimation pressure,"1147 K, Liquid",0.0129 ± 0.0039 kPa
same,vapor or sublimation pressure,"1151 K, Liquid",0.0126 ± 0.0038 kPa
same,vapor or sublimation pressure,"1154 K, Liquid",0.0132 ± 0.004 kPa
same,vapor or sublimation pressure,"1156 K, Liquid",0.0158 ± 0.0048 kPa
same,vapor or sublimation pressure,"1165 K, Liquid",0.0182 ± 0.0055 kPa
same,vapor or sublimation pressure,"1170 K, Liquid",0.0219 ± 0.0066 kPa
same,vapor or sublimation pressure,"1177 K, Liquid",0.024 ± 0.0072 kPa
same,vapor or sublimation pressure,"1187 K, Liquid",0.0324 ± 0.0097 kPa
same,vapor or sublimation pressure,"1190 K, Liquid",0.0316 ± 0.0095 kPa
same,vapor or sublimation pressure,"1203 K, Liquid",0.0407 ± 0.012 kPa
same,vapor or sublimation pressure,"1213 K, Liquid",0.0501 ± 0.015 kPa
